Assays:
Type in all cases: in vivo
[1] = tested on: Echinochloa crus-galli var. formosensis; assay: Test Example 1: herbicidal effect test by soil application in paddy rice; conditions: 120 g active ingredient per 10 ares, applied immediately after sowing, flooded pots, 14 days after application; for pest or weed control at 1200 g/ha: Echinochloa crus-galli, soil, 336 h, read-out: weed inhibition rate
How it was run: (§1)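 Treatment: 120 g active ingredient per 10 ares as a water-diluted emulsifiable concentrate, dropped onto flooded pots immediately after sowing. Thirty seeds per species went 0–1 cm into puddled paddy soil with 16:16:16 fertilizer, with ~3 cm flooding maintained in a glass greenhouse.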

[2] = tested on: Echinochloa crus-galli var. formosensis; assay: Test Example 2: herbicidal effect test by application during growth period of paddy rice; conditions: 120 g per 10 ares, applied seven days after sowing, flooded pots, 14 days after application; for inhibition at 1200 g/ha: Echinochloa crus-galli, read-out: weed inhibition rate
How it was run: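 Paddy soil in flooded pots (water depth about 3 cm) was sown with weed seeds and kept in a glass greenhouse. Seven days after sowing, a diluted emulsifiable concentrate was applied by dropper at 120 g active ingredient per 10 ares. Weed inhibition was evaluated 14 days after application, in duplicate.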

[3] = tested on: Digitaria ciliaris; assay: Test Example 4: herbicidal effect test by stem and leaf treatment in upland field; conditions: 120 g per 10 ares, sprayed seven days after sowing, upland soil, 14 days after application; for inhibition at 1200 g/ha: Digitaria ciliaris, read-out: weed inhibition rate
[4] = tested on: Echinochloa crus-galli; assay: as above; conditions: 120 g per 10 ares, sprayed seven days after sowing, upland soil, 14 days after application; for inhibition at 1200 g/ha: Echinochloa crus-galli, read-out: weed inhibition rate
[5] = tested on: Echinochloa crus-galli var. formosensis; assay: Test Example 5: herbicidal effect test by soil application in paddy rice (low dose); conditions: 7.5 g per 10 ares, applied immediately after sowing, flooded pots, 14 days after application; for inhibition at 75 g/ha: Echinochloa crus-galli, soil, 336 h, read-out: weed inhibition rate
Method: (§2) The present test was conducted in duplicate for each chemical concentration group, and the weed inhibition rate (%) was determined 14 days after chemical application using the following formula (Math. 1). [formula]
Wagner pots with an area of […] were filled with paddy soil, followed by addition of water and incorporation of chemical fertilizer (N:P:K = 16:16:16), after which puddling was performed. After that, seeds of Echinochloa crus-galli var. formosensis, broad-leaved weeds (Monochoria vaginalis), and Scirpus juncoides were sown at a depth of 0 cm to 1 cm, 30 seeds each. Immediately after sowing, the pots were flooded and a water depth of approximately 3 cm was maintained. Subsequent management was conducted in a glass greenhouse. Immediately thereafter, an emulsifiable concentrate prepared according to Formulation Example 5 using the compound shown below was diluted with water, and a specified amount of the diluted solution was applied by dropper. The amount of the active ingredient to be applied was equivalent to 7.5 g per 10 ares. […]

[6] = tested on: Echinochloa crus-galli var. formosensis; assay: Test Example 6: herbicidal effect test by application during growth period of paddy rice (low dose); conditions: 7.5 g per 10 ares, applied seven days after sowing, flooded pots, 14 days after application; for inhibition at 75 g/ha: Echinochloa crus-galli, read-out: weed inhibition rate
Method: as §2
Wagner pots with an area of […] were filled with paddy soil, followed by addition of water and incorporation of chemical fertilizer (N:P:K = 16:16:16), after which puddling was performed. After that, seeds of Echinochloa crus-galli var. formosensis, broad-leaved weeds (Monochoria vaginalis), and Scirpus juncoides were sown at a depth of 0 cm to 1 cm, 30 seeds each. Immediately after sowing, the pots were flooded and a water depth of approximately 3 cm was maintained. Subsequent management was conducted in a glass greenhouse. Seven days after sowing, an emulsifiable concentrate prepared according to Formulation Example 5 using the compound shown below was diluted with water, and a specified amount of the diluted solution was applied by dropper. The amount of the active ingredient to be applied was equivalent to 7.5 g per 10 ares. The test was conducted in duplicate for each chemical concentration group, and the herbicidal effect was evaluated 14 days after chemical application using the same criteria as in Test Example 1.

[7] = tested on: Echinochloa crus-galli; assay: Test Example 3: herbicidal effect test by soil application in upland field; conditions: 120 g per 10 ares, sprayed one day after sowing, 14 days after application; for inhibition at 1200 g/ha: Echinochloa crus-galli, read-out: weed inhibition rate
How it was run: (§3)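 Weed inhibition (%) was assessed 14 days after treatment, in duplicate per concentration group. Seeds had been mixed into the upper 1 cm of upland alluvial loam, and the soil surface was sprayed one day later with the diluted emulsifiable concentrate at 120 g active ingredient per 10 ares.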

[8] = tested on: Scirpus juncoides; assay: Test Example 1: herbicidal effect test by soil application in paddy rice; conditions: Schoenoplectiella juncoides, soil, 336 h; 120 g active ingredient per 10 ares; applied immediately after sowing, flooded pots; 14 days after application; read-out: weed inhibition rate
How it was run: as §1

[9] = tested on: Digitaria ciliaris; assay: Test Example 3: herbicidal effect test by soil application in upland field; conditions: 120 g per 10 ares, sprayed one day after sowing, 14 days after application; for inhibition at 1200 g/ha: Digitaria ciliaris, read-out: weed inhibition rate
How it was run: as §3

CC(C)[C@]12C[C@@H](OCc3ccccc3F)[C@](C)(CC1c1ccsc1)O2 (stereo partly drawn) [1-928, (1S,2R,4R)-2-((2-fluorobenzyl)oxy)-4-isopropyl-1-methyl-5-(thiophen-3-yl)-7-oxabicyclo[2.2.1]heptane]
≥ 80%: pest or weed control at 1200 g/ha [1] | inhibition at 1200 g/ha [2] | inhibition at 1200 g/ha [3] | inhibition at 1200 g/ha [4] | inhibition at 75 g/ha [5] | inhibition at 75 g/ha [6]

CC(=O)O[C@@H]1C[C@]2(C)O[C@@]1(C(C)C)C[C@H]2OCc1ccccc1F [1-932, [(1R,2R,4S,5R)-5-[(2-fluorophenyl)methoxy]-4-methyl-1-isopropyl-7-oxabicyclo[2.2.1]heptan-2-yl]acetate]
≥ 80%: weed inhibition rate [1] | weed inhibition rate [2] | weed inhibition rate [5] | weed inhibition rate [6]

Cc1ccccc1CO[C@@H]1C[C@]2(C(C)C)O[C@@]1(C)CC2c1ccccc1 (stereo partly drawn) [1-313, (1S,2R,4R)-4-isopropyl-1-methyl-2-((2-methylbenzyl)oxy)-5-phenyl-7-oxabicyclo[2.2.1]heptane]
≥ 80%: pest or weed control at 1200 g/ha [1] | inhibition at 1200 g/ha [2] | inhibition at 1200 g/ha [7] | inhibition at 1200 g/ha [4] | inhibition at 75 g/ha [5] | inhibition at 75 g/ha [6]

Cc1noc(C)c1CO[C@@H]1C[C@]2(C(C)C)O[C@@]1(C)C[C@@H]2Br [1-723, 4-[[(1S,2R,4R,5S)-5-bromo-1-methyl-4-isopropyl-7-oxabicyclo[2.2.1]heptan-2-yl]oxymethyl]-3,5-dimethyl-1,2-oxazole]
≥ 80%: pest or weed control at 1200 g/ha [1] | inhibition at 1200 g/ha [2] | inhibition at 75 g/ha [5] | inhibition at 75 g/ha [6]

CC(C)[C@]12C[C@@H](OCC3CCCCC3)[C@](C)(C[C@@H]1Br)O2 [1-676, (1S,2R,4R,5S)-5-bromo-2-(cyclohexylmethoxy)-1-methyl-4-isopropyl-7-oxabicyclo[2.2.1]heptane]
≥ 80%: pest or weed control at 1200 g/ha [1] | pest or weed control at 1200 g/ha [8] | inhibition at 1200 g/ha [2] | inhibition at 1200 g/ha [9] | inhibition at 1200 g/ha [7] | inhibition at 1200 g/ha [3] | inhibition at 1200 g/ha [4] | inhibition at 75 g/ha [5] | inhibition at 75 g/ha [6]

CC(C)[C@]12C[C@@H](OCc3cccc4ccccc34)[C@](C)(C[C@@H]1Br)O2 [1-715, (1S,2R,4R,5S)-5-bromo-1-methyl-2-(naphthalen-1-ylmethoxy)-4-isopropyl-7-oxabicyclo[2.2.1]heptane]
≥ 80%: pest or weed control at 1200 g/ha [1] | inhibition at 1200 g/ha [2] | inhibition at 75 g/ha [5] | inhibition at 75 g/ha [6]

COc1ccccc1CO[C@@H]1C[C@]2(C(C)C)O[C@@]1(C)CC2=O [2-7, (1R,4S,5R)-1-isopropyl-5-((2-methoxybenzyl)oxy)-4-methyl-7-oxabicyclo[2.2.1]heptan-2-one]
≥ 80%: pest or weed control at 1200 g/ha [1] | inhibition at 1200 g/ha [2] | inhibition at 1200 g/ha [3] | inhibition at 1200 g/ha [4] | inhibition at 75 g/ha [5]

CCc1ccccc1COC1CC2(C(C)C)OC1(C)CC2Br (centres unmarked) [1-1346, 5-bromo-2-[(2-ethylphenyl)methoxy]-1-methyl-4-isopropyl-7-oxabicyclo[2.2.1]heptane]
≥ 80%: pest or weed control at 1200 g/ha [1] | inhibition at 1200 g/ha [2] | inhibition at 1200 g/ha [9] | inhibition at 1200 g/ha [7] | inhibition at 1200 g/ha [3] | inhibition at 1200 g/ha [4]

CC(C)[C@]12C[C@@H](OCc3ccccc3F)[C@](C)(C[C@@H]1OCc1ccccc1)O2 [1-1606, (1S,2R,4R,SS)-2-[(2-fluorophenyl)methoxy]-1-methyl-5-phenylmethoxy-4-isopropyl-7-oxabicyclo[2.2.1]heptane]
≥ 80%: weed inhibition rate [1] | weed inhibition rate [2] | weed inhibition rate [9] | weed inhibition rate [7] | weed inhibition rate [3] | weed inhibition rate [4]

CC(C)[C@@]12C[C@H](OCc3ccccc3Br)[C@@](C)(C[C@H]1Br)O2 [1-1034, (1R,2S,4S,5R)-5-bromo-2-[(2-bromophenyl)methoxy]-1-methyl-4-isopropyl-7-oxabicyclo[2.2.1]heptane]
≥ 80%: pest or weed control at 1200 g/ha [1] | inhibition at 1200 g/ha [2] | inhibition at 1200 g/ha [9] | inhibition at 1200 g/ha [7] | inhibition at 1200 g/ha [3] | inhibition at 1200 g/ha [4]

Cc1cccc(C)c1COC1CC2(C(C)C)OC1(C)CC2Br (centres unmarked) [1-1599, 5-bromo-2-[(2,6-dimethylphenyl)methoxy]-1-methyl-4-isopropyl-7-oxabicyclo[2.2.1]heptane]
≥ 80%: pest or weed control at 1200 g/ha [1] | inhibition at 1200 g/ha [2] | inhibition at 1200 g/ha [9] | inhibition at 1200 g/ha [7] | inhibition at 1200 g/ha [3] | inhibition at 1200 g/ha [4]

Cc1ccccc1CO[C@H]1C[C@@]2(C(C)C)O[C@]1(C)C[C@H]2Br [1-1016, (1R,2S,4S,5R)-5-bromo-1-methyl-2-[(2-methylphenyl)methoxy]-4-isopropyl-7-oxabicyclo[2.2.1]heptane]
≥ 80%: pest or weed control at 1200 g/ha [1] | inhibition at 1200 g/ha [2] | inhibition at 1200 g/ha [9] | inhibition at 1200 g/ha [7] | inhibition at 1200 g/ha [3] | inhibition at 1200 g/ha [4]

CC(C)[C@]12C[C@@H](OCc3ccc(C#N)cc3)[C@](C)(C[C@@H]1Br)O2 [1-705, 4-[[(1S,2R,4R,5S)-5-bromo-1-methyl-4-isopropyl-7-oxabicyclo[2.2.1]heptan-2-yl]oxymethyl]benzonitrile]
≥ 80%: pest or weed control at 1200 g/ha [1] | inhibition at 1200 g/ha [2] | inhibition at 1200 g/ha [9] | inhibition at 1200 g/ha [7] | inhibition at 1200 g/ha [3] | inhibition at 1200 g/ha [4]
